Measured values from patent US11464780B2, “Pyrazolopyrimidine derivative and use thereof” (Simcere Pharmaceutical Co. Ltd., priority 2018, dated 2022).
Like-named read-outs stand apart in the source and are kept apart here.

What was measured:
[1] = biological target: T1, TrkA-G595R (Homo sapiens, UniProt P04629, G595R); assay: Kinase inhibitory activity (33P-ATP filter binding, Reaction Biology Corp.); assay type: biochemical; settings: read-out: The half maximal inhibitory concentration IC50 on the kinases, TrkA-G595R
T1 construct: purchased Reaction Biology Corp. (contract assay)
Method: (§1) The mixture was incubated at room temperature for 20 minutes. To the reaction mixture was added a certain concentration of ^33P-ATP to initiate the reaction, and then the mixture was incubated at room temperature for 120 minutes. The radioactivities of the reactants were determined by the method of filter binding. The final kinase activity was expressed as the ratio of the remaining kinase activity in the test sample to the kinase activity in the DMSO control group. The dose-effect curve was fitted by GraphPad software and the IC50 was calculated.

[2] = biological target: T2, Ros1 (Homo sapiens, UniProt P08922); assay: as above; assay type: biochemical; settings: read-out: The half maximal inhibitory concentration IC50 on the kinases, Ros1
T2 construct: purchased Reaction Biology Corp. (contract assay)
Method: as §1

[3] = biological target: T3, TrkA (Homo sapiens, UniProt P04629); assay: as above; assay type: biochemical; settings: read-out: The half maximal inhibitory concentration IC50 on the kinases, TrkA
T3 construct: purchased Reaction Biology Corp. (contract assay)
Method: as §1

[4] = biological target: T4, TrkA-G667C (Homo sapiens, UniProt P04629, G667C); assay: as above; assay type: biochemical; settings: read-out: The half maximal inhibitory concentration IC50 on the kinases, TrkA-G667C
T4 construct: purchased Reaction Biology Corp. (contract assay)
Method: as §1

[5] = biological target: T5, TrkC (Homo sapiens, UniProt Q16288); assay: as above; assay type: biochemical; settings: read-out: The half maximal inhibitory concentration IC50 on the kinases, TrkC
T5 construct: purchased Reaction Biology Corp. (contract assay)
Method: as §1

[6] = biological target: T6, Ba/F3 LMNA-NTRK1-WT stably transfected cell line (Homo sapiens, UniProt P04629); assay: Cell proliferation inhibition (CellTiter-Glo); assay type: cell-based; settings: 72 hours, read-out: The half maximal inhibitory concentration IC50 against cells, Ba/F3 LMNA-NTRK1-WT
T6 construct: fused on or other part: P02545 (Prelamin-A/C)
Method: Adenosine Tri-Phosphate (ATP) is an energy carrier shared by various life activities in nature, and is the smallest unit of energy storage and transfer. The CellTiter-Glo™ cell viability detection kit uses luciferase as the detection substance, and luciferase requires the participation of ATP during the process of luminescence. CellTiter-Glo™ reagent is added to cell culture medium, and the luminescent intensity is measured. The luminescent signal is directly proportional to the amount of ATP in the system, and ATP is positively related to the number of living cells. Therefore, by using the CellTiter-Glo kit to detect ATP content, cell proliferation can be detected. In this assay, the cell line is Ba/F3 LMNA-NTRK1-WT stably transfected cell line, with 5000 cells/well.
IC50 Determination Process:
1. Cell Culture and Inoculation
a) the cells in the logarithmic growth phase were harvested, and counted with a platelet counter. Trypan blue exclusion method was used to detect cell viability to ensure the cell viability was no less than 90%.
b) the cell concentration was adjusted; 90 μL of cell suspension was added respectively into a 96-well plate.
c) the cells in the 96-well plates was cultured under conditions of 37° C., 5% CO2 and 95% humidity overnight.
2. Drug Dilution and Administration
a) 10-fold drug solutions were prepared, the highest concentration was 10 μM, 9 concentrations, 3-fold diluted (refer to Appendix I). 10 μL of each drug solution was added to each well of the 96-well plate seeded with the cells in triplicate.
b) the cells in the 96-well plate added with the drug were cultured under conditions of 37° C., 5% CO2 and 95% humidity for 72 hours, and then CTG (cell proliferation) was performed.
a) CellTiter-Glo™ reagent was thawed, and the cell plate was equilibrated at room temperature for 30 minutes.
b) CellTiter-Glo™ reagent of a same volume was added to each well;
c) the cell plate was shaken on an orbital shaker for 5 minutes to lyse the cells.
d) the cell plate was placed at room temperature for 20 minutes to stabilize the luminescent signal.
e) the luminescent intensity was read.
GraphPad Prism 5.0 software was used to analyze the data, nonlinear S-curve regression was used to fit the data to obtain dose-effect curve, and IC50 value was calculated therefrom.

[7] = biological target: T7, BaF3 ETV6-NTRK3-G623R stably transfected cell line (Homo sapiens, UniProt Q16288, G623R, cells depend on it); assay: Cell proliferation inhibition (CellTiter-Glo); assay type: cell-based; settings: 72 hours, read-out: The half maximal inhibitory concentration IC50 against cells, BaF3 ETV6-NTRK3-G623R
T7 construct: fused on or other part: P41212 (Transcription factor ETV6)

[8] = biological target: T8, Ba/F3 LMNA-NTRK1-G595R stably transfected cell line (Homo sapiens, UniProt P04629, G595R, cells depend on it); assay: Cell proliferation inhibition (CellTiter-Glo); assay type: cell-based; settings: 72 hours, read-out: The half maximal inhibitory concentration IC50 against cells, Ba/F3 LMNA-NTRK1-G595R
T8 construct: fused on or other part: P02545 (Prelamin-A/C)

[9] = In vivo pharmacokinetic test in mice; set-up: species or system male CD-1 mice; settings: for Cmax: read-out: Peak concentration Cmax; for Vd: read-out: Apparent volume of distribution Vd; for AUC(0-t): read-out: Area under the curve AUC0-last; for half-life: read-out: Half life T1/2 (converted); for bioavailability: read-out: Bioavailability F %; for Tmax: read-out: Time of peak concentration Tmax
Method: Experimental object: male CD-1 mice aged 7-9 weeks were used as the experimental animals, the LC/MS/MS method was used to determine the drug concentrations in plasma at different time points after single intravenous (IV) and intragastric (PO) administration of the compounds, in vivo pharmacokinetic behaviors of the compounds of the present disclosure in mice were studied, and pharmacokinetic characteristics thereof were evaluated. Drug preparation: The compounds were prepared into clear solutions with 5% DMSO+10% solutol+85% water as solvent for administration in IV (intravenous) group and PO (intragastric). The dose of the compounds: IV dose of 3 mg/kg, and PO dose of […].

[10] = biological target: T9, ALK (Homo sapiens, UniProt Q9UM73); assay: Kinase inhibitory activity (33P-ATP filter binding, Reaction Biology Corp.); assay type: biochemical; settings: read-out: The half maximal inhibitory concentration IC50 on the kinases, ALK
T9 construct: purchased Reaction Biology Corp. (contract assay)
Method: The inhibitory activities of the compounds on TrkA, TrkC, ALK, Ros1 and other kinases were determined by Reaction Biology Corp. To reaction buffer (20 mM Hepes (pH 7.5), 10 mM MgCl2, 1 mM EGTA, 0.02% Brij35, 0.02 mg/mL BSA, 0.1 mM Na3VO4, 2 mM DTT, 1% DMSO) were sequentially added a certain concentration of substrate, coenzyme factor, kinase and test compound (10 concentrations, 3-fold serial dilutions, DMSO at a final concentration of […]), and the mixture was mixed evenly. The mixture was incubated at room temperature for 20 minutes. To the reaction mixture was added a certain concentration of ^33P-ATP to initiate the reaction, and then the mixture was incubated at room temperature for 120 minutes. The radioactivities of the reactants were determined by the method of filter binding. The final kinase activity was expressed as the ratio of the remaining kinase activity in the test sample to the kinase activity in the DMSO control group. The dose-effect curve was fitted by GraphPad software and the IC50 was calculated.

[11] = test system: human colon cancer cell line KM12 subcutaneous xenograft tumor; assay: In vivo efficacy, subcutaneous xenograft tumor of human colon cancer KM12; set-up: species or system BALB/c mouse; settings: PO
Method: Experimental object: evaluation of the in vivo efficacy of test drugs such as WX002A on subcutaneous xenograft tumor of human colon cancer cell line KM12 cell in BALB/c mouse model.
Drug preparation: The compounds were all prepared into clear solutions with 5% DMSO+10% solutol+85% water as solvent for administration in the PO (intragastric) group.
Tumor measurement: the tumor diameters were measured with a vernier caliper twice a week. The calculation formula of tumor volume is: V=0.5×a×b^2, wherein a and b represent the long diameter and short diameter of the tumor, respectively. The anti-tumor efficacy of the compounds is evaluated by TGI (%). TGI (%) reflects tumor growth inhibition rate.
Statistical analysis: The statistical analysis was based on the relative tumor volume and tumor weight at the end of the experiment using SPSS software. One-way ANOVA was used to analyze the comparison between multiple groups. […] P<0.05 was considered to indicate significant difference.

[12] = In vivo cassette pharmacokinetic test in mice; set-up: species or system male CD-1 mice; settings: cassette, mice; for Apparent clearance Cl: IV @ 1 mpk
Method: The dose of the compounds: […] PO dose of 3 mg/kg, and administration volume of 3 mL/kg.

[13] = male, CD-1, mouse, plasma, IV dose of 3 mg/kg
[14] = male, CD-1, mouse, plasma, PO dose of 10 mL/kg vs IV 3 mg/kg
[15] = male, CD-1, mouse, plasma, PO dose of 10 mL/kg

T2 sequence (P08922 28-2347): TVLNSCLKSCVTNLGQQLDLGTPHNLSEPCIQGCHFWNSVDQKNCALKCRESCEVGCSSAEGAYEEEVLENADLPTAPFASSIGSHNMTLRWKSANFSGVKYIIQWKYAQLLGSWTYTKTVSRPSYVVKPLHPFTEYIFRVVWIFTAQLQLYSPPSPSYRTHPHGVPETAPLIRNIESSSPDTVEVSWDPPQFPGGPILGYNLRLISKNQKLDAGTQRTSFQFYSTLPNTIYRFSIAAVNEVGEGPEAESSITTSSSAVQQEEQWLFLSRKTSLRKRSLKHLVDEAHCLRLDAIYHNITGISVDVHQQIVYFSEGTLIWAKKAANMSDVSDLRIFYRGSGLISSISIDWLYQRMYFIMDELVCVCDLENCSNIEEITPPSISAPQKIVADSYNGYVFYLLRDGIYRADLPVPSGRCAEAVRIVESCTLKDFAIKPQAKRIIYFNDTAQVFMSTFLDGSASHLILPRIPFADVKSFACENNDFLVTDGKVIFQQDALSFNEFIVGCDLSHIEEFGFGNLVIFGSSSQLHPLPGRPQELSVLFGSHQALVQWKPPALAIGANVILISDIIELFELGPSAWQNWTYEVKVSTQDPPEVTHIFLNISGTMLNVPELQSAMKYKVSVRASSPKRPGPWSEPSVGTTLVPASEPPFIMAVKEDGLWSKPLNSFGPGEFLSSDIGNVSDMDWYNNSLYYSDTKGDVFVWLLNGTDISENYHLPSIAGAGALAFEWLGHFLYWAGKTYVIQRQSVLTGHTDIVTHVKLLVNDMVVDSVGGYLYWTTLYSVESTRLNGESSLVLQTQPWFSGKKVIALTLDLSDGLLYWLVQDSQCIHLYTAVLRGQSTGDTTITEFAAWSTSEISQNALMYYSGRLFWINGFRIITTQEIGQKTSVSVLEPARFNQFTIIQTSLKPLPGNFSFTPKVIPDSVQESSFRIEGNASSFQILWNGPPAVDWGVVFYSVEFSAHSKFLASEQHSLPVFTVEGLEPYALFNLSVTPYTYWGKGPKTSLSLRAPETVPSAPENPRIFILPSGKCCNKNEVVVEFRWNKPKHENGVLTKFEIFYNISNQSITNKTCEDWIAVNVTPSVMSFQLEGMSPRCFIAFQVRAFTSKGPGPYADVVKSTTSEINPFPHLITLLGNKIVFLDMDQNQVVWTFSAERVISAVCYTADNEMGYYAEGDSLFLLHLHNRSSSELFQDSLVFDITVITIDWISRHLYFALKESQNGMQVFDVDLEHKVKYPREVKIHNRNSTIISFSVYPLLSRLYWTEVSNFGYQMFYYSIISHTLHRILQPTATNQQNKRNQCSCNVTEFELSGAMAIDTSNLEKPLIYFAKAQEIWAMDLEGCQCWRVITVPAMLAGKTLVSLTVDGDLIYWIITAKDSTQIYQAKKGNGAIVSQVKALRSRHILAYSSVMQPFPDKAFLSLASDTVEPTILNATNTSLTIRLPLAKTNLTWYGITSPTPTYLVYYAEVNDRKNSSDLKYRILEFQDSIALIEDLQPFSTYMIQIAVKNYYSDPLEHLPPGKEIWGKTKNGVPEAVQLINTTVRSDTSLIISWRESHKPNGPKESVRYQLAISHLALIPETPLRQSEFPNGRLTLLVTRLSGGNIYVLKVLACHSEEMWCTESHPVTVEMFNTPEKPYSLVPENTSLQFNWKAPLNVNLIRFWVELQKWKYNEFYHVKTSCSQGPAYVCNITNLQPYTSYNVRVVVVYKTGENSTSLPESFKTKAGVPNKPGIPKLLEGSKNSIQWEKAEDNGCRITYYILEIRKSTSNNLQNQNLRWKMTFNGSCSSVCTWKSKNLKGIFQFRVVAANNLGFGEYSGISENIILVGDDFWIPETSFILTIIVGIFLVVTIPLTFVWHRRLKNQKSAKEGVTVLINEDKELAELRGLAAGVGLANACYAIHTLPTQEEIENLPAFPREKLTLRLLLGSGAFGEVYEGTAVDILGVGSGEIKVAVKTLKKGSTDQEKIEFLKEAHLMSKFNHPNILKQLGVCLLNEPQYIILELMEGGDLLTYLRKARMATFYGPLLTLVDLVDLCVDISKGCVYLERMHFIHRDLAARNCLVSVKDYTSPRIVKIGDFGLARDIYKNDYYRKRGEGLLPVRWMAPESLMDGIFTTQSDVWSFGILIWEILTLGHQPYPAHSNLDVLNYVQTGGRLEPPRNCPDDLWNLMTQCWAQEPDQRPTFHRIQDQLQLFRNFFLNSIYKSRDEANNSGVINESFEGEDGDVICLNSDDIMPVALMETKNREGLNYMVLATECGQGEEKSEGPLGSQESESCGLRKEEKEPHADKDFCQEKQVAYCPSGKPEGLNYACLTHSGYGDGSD
T4 sequence (P04629 33-796 G667C): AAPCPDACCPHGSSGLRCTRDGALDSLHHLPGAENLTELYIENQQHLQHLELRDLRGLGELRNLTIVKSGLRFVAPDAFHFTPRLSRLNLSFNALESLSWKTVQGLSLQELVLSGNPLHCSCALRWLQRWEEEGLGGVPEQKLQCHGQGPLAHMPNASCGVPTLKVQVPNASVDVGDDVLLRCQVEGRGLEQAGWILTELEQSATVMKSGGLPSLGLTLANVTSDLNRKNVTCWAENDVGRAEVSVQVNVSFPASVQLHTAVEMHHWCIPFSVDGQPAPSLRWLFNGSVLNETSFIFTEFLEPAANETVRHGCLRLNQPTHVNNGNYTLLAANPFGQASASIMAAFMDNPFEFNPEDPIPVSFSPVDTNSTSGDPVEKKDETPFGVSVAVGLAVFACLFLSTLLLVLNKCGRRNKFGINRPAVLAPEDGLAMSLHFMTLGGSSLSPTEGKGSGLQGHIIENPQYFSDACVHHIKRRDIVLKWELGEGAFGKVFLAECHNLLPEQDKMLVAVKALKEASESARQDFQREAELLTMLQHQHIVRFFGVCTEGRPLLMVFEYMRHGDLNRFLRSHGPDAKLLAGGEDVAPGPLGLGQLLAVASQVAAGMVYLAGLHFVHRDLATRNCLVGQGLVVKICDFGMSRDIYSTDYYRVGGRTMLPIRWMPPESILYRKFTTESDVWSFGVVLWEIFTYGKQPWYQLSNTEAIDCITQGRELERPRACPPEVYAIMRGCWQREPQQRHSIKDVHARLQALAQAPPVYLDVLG
T3 sequence (P04629 33-796): as the sequence (P04629 33-796 G667C) above, with C635G counted along it
T1 sequence (P04629 33-796 G595R): as the sequence (P04629 33-796 G667C) above, with G563R, C635G counted along it
T5 sequence (Q16288 32-839): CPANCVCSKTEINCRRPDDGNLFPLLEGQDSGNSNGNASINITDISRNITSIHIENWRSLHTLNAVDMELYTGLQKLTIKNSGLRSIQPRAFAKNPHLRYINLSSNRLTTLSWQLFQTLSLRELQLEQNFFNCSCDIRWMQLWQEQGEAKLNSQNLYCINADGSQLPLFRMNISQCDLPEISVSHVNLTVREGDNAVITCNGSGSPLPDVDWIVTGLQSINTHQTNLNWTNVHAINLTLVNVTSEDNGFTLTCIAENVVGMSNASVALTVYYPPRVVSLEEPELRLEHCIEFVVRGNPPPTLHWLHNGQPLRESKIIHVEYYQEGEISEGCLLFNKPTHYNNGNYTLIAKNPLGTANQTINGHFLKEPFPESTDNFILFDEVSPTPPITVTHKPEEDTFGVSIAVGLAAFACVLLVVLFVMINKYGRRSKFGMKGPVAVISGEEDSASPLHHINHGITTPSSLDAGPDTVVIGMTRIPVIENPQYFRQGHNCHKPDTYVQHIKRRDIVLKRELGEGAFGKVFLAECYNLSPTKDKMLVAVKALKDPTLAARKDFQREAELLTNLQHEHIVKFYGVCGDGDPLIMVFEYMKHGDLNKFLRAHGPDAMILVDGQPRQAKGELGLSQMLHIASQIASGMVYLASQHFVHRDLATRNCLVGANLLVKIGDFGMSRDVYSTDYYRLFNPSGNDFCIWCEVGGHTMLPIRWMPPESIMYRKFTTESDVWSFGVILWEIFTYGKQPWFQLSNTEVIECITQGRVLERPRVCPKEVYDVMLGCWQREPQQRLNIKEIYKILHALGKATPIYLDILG
T8 sequence (P04629 whole entry G595R, the tested form may be a part): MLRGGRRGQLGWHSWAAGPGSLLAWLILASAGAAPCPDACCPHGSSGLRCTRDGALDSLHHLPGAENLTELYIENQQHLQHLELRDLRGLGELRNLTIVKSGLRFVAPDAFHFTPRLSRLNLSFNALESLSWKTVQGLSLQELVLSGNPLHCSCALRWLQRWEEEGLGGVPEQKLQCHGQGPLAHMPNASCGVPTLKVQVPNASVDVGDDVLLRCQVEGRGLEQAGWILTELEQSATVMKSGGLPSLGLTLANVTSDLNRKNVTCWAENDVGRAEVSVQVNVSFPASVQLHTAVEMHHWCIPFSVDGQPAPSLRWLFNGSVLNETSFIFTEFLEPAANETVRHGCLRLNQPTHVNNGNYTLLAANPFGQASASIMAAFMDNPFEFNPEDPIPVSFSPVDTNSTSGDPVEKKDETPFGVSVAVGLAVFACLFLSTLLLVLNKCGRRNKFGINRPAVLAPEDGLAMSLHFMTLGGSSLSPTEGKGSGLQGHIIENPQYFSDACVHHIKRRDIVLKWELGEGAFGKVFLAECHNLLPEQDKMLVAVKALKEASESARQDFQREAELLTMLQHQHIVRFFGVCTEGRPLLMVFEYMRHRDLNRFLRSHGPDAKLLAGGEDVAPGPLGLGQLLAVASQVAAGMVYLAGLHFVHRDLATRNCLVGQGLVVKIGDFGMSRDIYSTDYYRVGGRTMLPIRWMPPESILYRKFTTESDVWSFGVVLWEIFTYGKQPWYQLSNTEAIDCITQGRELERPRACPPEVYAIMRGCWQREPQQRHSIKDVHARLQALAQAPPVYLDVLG
T6 sequence (P04629 whole entry, stated change not applied, the tested form may be a part): as the sequence (P04629 whole entry G595R, the tested form may be a part) above, with R595G counted along it

Row | SMILES | IC50 [1] | IC50 [2] | IC50 [3] | IC50 [4] | IC50 [5] | GI50 [6] | GI50 [7] | GI50 [8] | Apparent clearance Cl ([9]; IV dose of 3 mg/kg) | Area under the curve AUC0-last ([9]; PO dose of 10 mL/kg) | Time of peak concentration Tmax ([9]; PO dose of 10 mL/kg) | Cmax ([9]; PO dose of 10 mL/kg) | IC50 [10] | Apparent clearance Cl [12] | drug concentration in cerebrospinal fluid at 0.5 hour CSF@0.5 h ([12]; PO @ 3 mpk, CSF) | drug concentration in brain at 0.5 h Brain@0.5 h ([12]; PO @ 3 mpk) | drug concentration in brain at 2 h Brain@2 h ([12]; PO @ 3 mpk, 2 h) | Vd [9, 13] | AUC(0-t) [9, 13] | half-life [9, 13] | further results
1 | O=C1NC2(CC2)COc2ccc(F)cc2[C@H]2CCON2c2ccn3ncc1c3n2 (single isomer, unassigned) [WX003A] | 3.59 nM | 0.15 nM | 2.66 nM | 3.04 nM | 0.06 nM | 4.08 nM | 0.9 nM | 27.9 nM | 10.8 mL/min/kg | 27.967 µM·h | 22.8 min | 7.36 µM | 28.1 nM | – | – | – | – | – | – | – | Apparent volume of distribution Vd ([9]; IV dose of 3 mg/kg): 0.81 L/kg; Area under the curve AUC0-last ([9]; IV dose of 3 mg/kg): 12.216 µM·h; Half life T1/2 ([9]; IV dose of 3 mg/kg): 42 min; Bioavailability F % ([9]; PO dose of 10 mL/kg vs IV 3 mg/kg): 69%
2 | O=C(Nc1cnn2ccc(N3CCC[C@@H]3c3cc(F)ccc3F)nc12)N1CC[C@H](O)C1 [LOXO-101, Larotrectinib, reference compound] | – | – | – | – | – | – | – | – | – | 2.89 µM·h | 22.8 min | 1.55 µM | – | 22.7 mL/min/kg | 15 nmol/kg | 40 nmol/kg | 20 nmol/kg | – | – | – | T/C ([11]; high-dose group 60 mg/kg): 34.20%; TGI ([11]; high-dose group 60 mg/kg): 69.73%; drug concentration in cerebrospinal fluid at 2 hour CSF@2 h ([12]; PO @ 3 mpk, CSF, 2 h): 3 nmol/kg
3 | C[C@H]1CNC(=O)c2cnn3ccc(nc23)N[C@H](C)c2cc(F)ccc2O1 [TPX-0005, reference compound] | – | – | – | – | – | – | – | – | – | – | – | – | – | 16.5 mL/min/kg | 8 nmol/kg | 50 nmol/kg | 41 nmol/kg | – | – | – | T/C ([11]; dose of 3 mg/kg): 16.80%; TGI ([11]; dose of 3 mg/kg): 87.46%
4 | C[C@@H]1COc2ncc(F)cc2[C@H]2CCON2c2ccn3ncc(c3n2)C(=O)N1 [WX004A] | 38.5 nM | 0.94 nM | 14.3 nM | 42 nM | 0.41 nM | 7.69 nM | 2.1 nM | 14.5 nM | 10.4 mL/min/kg | – | – | – | 109 nM | – | – | – | – | 0.75 L/kg | 12.5 µM·h | 44.4 min | bioavailability [9, 14]: 72%; AUC(0-t) [9, 15]: 29.6 µM·h; Cmax [9, 15]: 10.5 µM; Tmax [9, 15]: 30 min
5 | C[C@@H]1COc2ccc(F)cc2[C@H]2CCON2c2ccn3ncc(c3n2)C(=O)N1 [WX017A] | 37.1 nM | 0.82 nM | 13.4 nM | 26.3 nM | 0.3 nM | – | – | – | 17.8 mL/min/kg | – | – | – | 119 nM | – | – | – | – | 0.74 L/kg | 7.34 µM·h | 42.6 min | bioavailability [9, 14]: 111%; AUC(0-t) [9, 15]: 26.7 µM·h; Cmax [9, 15]: 10.8 µM; Tmax [9, 15]: 37.8 min
